Measurements: patent US20230338491A1, “METHOD FOR SCREENING INDIVIDUAL TUMOR NEOANTIGEN PEPTIDE, AND VACCINE FORMULATION THEREOF” (HANGZHOU NEOANTIGEN THERAPEUTICS CO., LTD., priority 2021, published 2023)
Like-named read-outs stand apart in the source and are kept apart here. Ends that are not written are not given here.

Assay: solubility comparison test in water and mannitol solutions
Assay type: physicochemical
Source text: Mannitol is a common adjuvant (skeleton forming agent) of freeze-dried preparation, which is used as a carrier to form a hard uniform skeleton so as to improve appearance of the freeze-dried preparation in glass bottles. […] Hydroxyl groups in mannitol molecule can form hydrogen bonds with carbonyl groups in peptide bonds, which cannot directly promote dissolution of polypeptides, but can promote formation of micelle. Therefore, solubilization of mannitol is mainly solubility enhancement after micelle formation. Results of solubility comparison test of the same polypeptide in water and mannitol solutions with different concentrations shown in table 7 as follows: […]

[1] = Solubility in 1% of mannitol solution
[2] = Solubility in 2% of mannitol solution
[3] = 1% of mannitol solution, read-out: Solubility in 1% of mannitol solution
[4] = 2% of mannitol solution, read-out: Solubility in 2% of mannitol solution
[5] = water, read-out: Solubility in water

Compound | solubility [1] [µg/mL] | solubility [2] [µg/mL] | solubility (Solubility in water) [µg/mL] | solubility [3] [µg/mL] | solubility [4] [µg/mL] | solubility [5] [µg/mL]
CC[C@H](C)[C@H](NC(=O)[C@H](CC(C)C)NC(=O)[C@H](CCC(N)=O)NC(=O)[C@@H](NC(=O)[C@@H](NC(=O)[C@H](CC(C)C)NC(=O)[C@H](C)NC(=O)[C@H](CO)NC(=O)[C@H](CCCCN)NC(=O)CNC(=O)[C@@H](NC(=O)CNC(=O)[C@H](CC(=O)O)NC(=O)[C@H](C)NC(=O)CNC(=O)[C@@H](NC(=O)[C@@H](NC(=O)[C@@H](N)CCCCN)C(C)C)C(C)C)C(C)C)[C@@H](C)O)[C@@H](C)CC)C(=O)N[C@@H](CCC(N)=O)C(=O)N[C@@H](CC(N)=O)C(=O)N[C@@H](Cc1c[nH]cn1)C(=O)O [GWMI01] | ≥ 1000 | ≥ 1000 | < 100 |  |  | 
FHDQPHLKRKAVCSFQIYAVPWQGT [HMZH51] |  |  |  | ≥ 10000 | ≥ 10000 | < 2000
GQAFKYSSNLLRHMRTHTGEKPF [HMZH60] | ≥ 10000 | ≥ 10000 | < 2000 |  |  | 
KFKYVGTMEASEDATFNKITRSLQDLQQK [HMZH66] |  |  |  | ≥ 10000 | ≥ 10000 | ≤ 1500
KGFTQGDVGLAMGKLYRNDFSQTTISRFEA [TZQI66] |  |  |  | ≥ 1000 | ≥ 1000 | < 100
KKKGQQLSGVNAIYFYADQIYLSAGVPEEH [GWMI10] |  |  |  | ≥ 1000 | ≥ 1000 | < 100
KLVFVRKSLNRIEFRECREEILKFLKK [GWMI13] |  |  |  | ≥ 1000 | ≥ 1000 | < 100
PGWSLTLGLRCSSRLGLPK [LYLI37, PGWSLTLGLRCSSRLGLPK] |  |  |  | ≥ 1000 | ≥ 1000 | < 100
SRKLEDYGEQKSMSISTAKRLAEFLGDQK [HMZH59] |  |  |  | ≥ 1000 | ≥ 1000 | 300
SSPAEFFELMKGQIRIAKRRVVMASLYLGT [TZQI51] |  |  |  | ≥ 1000 | ≥ 1000 | < 100
TSLKGEIAFDPRRAYYLWF [LXJI54, TSLKGEIAFDPRRAYYLWF] |  |  |  | ≥ 1000 | ≥ 1000 | < 100

Further lines, results first:

solubility [1] [µg/mL] | solubility [2] [µg/mL] | solubility (Solubility in water) [µg/mL] | solubility [3] [µg/mL] | solubility [4] [µg/mL] | solubility [5] [µg/mL] | Compound
 |  |  | ≥ 1000 | ≥ 1000 | < 100 | DIQDLKTCIASTTQNIEQKKK [WJIA11]
 |  |  | ≥ 1000 | ≥ 1000 | 300 | FAEKLTLILQEKYKNYWYPEKPSKGQAY [YMZH17]
 |  |  | > 1000 | > 1000 | < 100 | FITRPPHRFLSLLCLGLRIPQLSV [YMZH19]
 |  |  | ≥ 1000 | ≥ 1000 | < 100 | KEQMMREKEKLMLRLQDYEEKTKK [ZZJI58]
 |  |  | ≥ 1000 | ≥ 1000 | < 100 | KKKKFVALVLSTLHMLTYGWTRAFEESRYK [ZZJI44]
 |  |  | ≥ 1000 | ≥ 1000 | 300 | KLTLASWGPKMVLLRLEHQFAVGK [YMZH14]
 |  |  | ≥ 1000 | ≥ 1000 | < 100 | SVFGDRITGETIRSQNVMAAASK [WKYE17]
 |  |  | ≥ 1000 | ≥ 1000 | 300 | YKQLTIQVLLDRLVLQRLYPLAIQIKK [YMZH10]
